Experimental data: patent publication US20260242352A1, “INHIBITION OF SHIP1 AS A THERAPEUTIC STRATEGY FOR THE TREATMENT OF ALZHEIMER'S DISEASE” (The Trustees of Indiana University, priority 2022, published 2026)

Target: T1, HiBit-labeled full length SHIP1 protein (Homo sapiens, UniProt Q92835)
T1 construct: thermal stability of a HiBit-labeled full length SHIP1 protein in intact cells; expressed in transfected cells; host or cells: HMC3 (stably transfected)
T1 sequence (Q92835 1-1189): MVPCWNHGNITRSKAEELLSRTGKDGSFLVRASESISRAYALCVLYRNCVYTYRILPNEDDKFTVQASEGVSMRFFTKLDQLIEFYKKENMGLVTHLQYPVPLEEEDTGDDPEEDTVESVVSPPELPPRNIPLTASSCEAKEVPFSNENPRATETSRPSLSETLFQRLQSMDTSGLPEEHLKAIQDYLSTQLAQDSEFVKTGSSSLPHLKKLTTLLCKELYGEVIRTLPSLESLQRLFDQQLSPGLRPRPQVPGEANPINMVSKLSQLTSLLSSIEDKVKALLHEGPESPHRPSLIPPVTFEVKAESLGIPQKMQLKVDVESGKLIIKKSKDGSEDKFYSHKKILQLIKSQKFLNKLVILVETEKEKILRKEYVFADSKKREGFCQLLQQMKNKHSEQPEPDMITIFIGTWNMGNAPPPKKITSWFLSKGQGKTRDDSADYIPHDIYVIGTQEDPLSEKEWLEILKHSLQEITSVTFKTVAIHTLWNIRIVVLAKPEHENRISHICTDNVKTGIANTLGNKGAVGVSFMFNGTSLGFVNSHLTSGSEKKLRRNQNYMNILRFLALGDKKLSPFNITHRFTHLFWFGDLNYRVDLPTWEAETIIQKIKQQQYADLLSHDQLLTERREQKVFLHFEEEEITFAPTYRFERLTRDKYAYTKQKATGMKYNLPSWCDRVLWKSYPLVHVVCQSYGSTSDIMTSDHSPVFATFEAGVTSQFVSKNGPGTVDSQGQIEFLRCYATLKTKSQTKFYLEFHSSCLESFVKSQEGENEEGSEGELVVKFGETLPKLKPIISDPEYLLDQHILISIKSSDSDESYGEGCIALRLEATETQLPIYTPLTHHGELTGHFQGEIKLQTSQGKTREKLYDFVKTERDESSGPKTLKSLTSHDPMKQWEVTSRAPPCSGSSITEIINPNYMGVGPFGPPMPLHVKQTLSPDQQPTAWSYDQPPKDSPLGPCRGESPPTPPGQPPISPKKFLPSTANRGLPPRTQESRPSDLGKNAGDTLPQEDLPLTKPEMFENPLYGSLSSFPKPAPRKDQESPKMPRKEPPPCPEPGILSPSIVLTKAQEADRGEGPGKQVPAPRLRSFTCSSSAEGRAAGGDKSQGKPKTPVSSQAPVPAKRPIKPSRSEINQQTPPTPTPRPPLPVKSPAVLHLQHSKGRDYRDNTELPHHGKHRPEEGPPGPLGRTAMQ
Assay: Cellular thermal shift assay (SplitLuc CETSA), compound dose response
Format: cell-based
Conditions: HMC3/HiBit-INPP5D cells, 60 min; for CETSA Min Inhibition (%): heated at 44.2° C.; for AC50: heated at 44.2° C. for 3 min, 8-point curve from 80 uM or 100 uM
Description: Cellular thermal shift assay (CETSA). […] This assay was run in the following two formats with HMC3/HiBit-INPP5D stably transfected cells.
2. Compound dose response: run at target Tm (44.2° C. for SHIP1) with compound dosing from 80 uM or 100 uM with 1:3 serial dilutions to generate an 8 point curve. Cells were treated for 60 min before being heated at target Tm for 3 min before luminescence detection. An AC50 was calculated using a four-parameter logistic curve regression model with change at highest concentration noted when difference from control >3SD, otherwise AC50 marked as “nc” for not calculated.
See Martinez et al. (2018) Sci Rep 8: p. 9472; Oh-Hashi et al. (2017) Biochem Biophys Rep 12: pp. 40-45. This assay was run in the following two formats with HMC3/HiBit-INPP5D stably transfected cells.
Compound dose response: run at target Tm (44.2° C. for SHIP1) with compound dosing from 80 uM or 100 uM with 1:3 serial dilutions to generate an 8-point curve. Cells were treated for 60 min before being heated at target Tm for 3 min before luminescence detection. The concentration that induced a half-maximum response (AC50) was calculated using a four-parameter logistic curve regression model with change at highest concentration noted when difference from control >3SD.

Compound	CETSA Min Inhibition (%)	AC50
CC(C)(C)OC(=O)N1CCC(n2cc(-c3cncc(OCc4ccccc4Cl)c3)cn2)CC1 [Compound 1, tert-butyl 4-(4-{5-[(2-chlorophenyl)methoxy]pyridin-3-yl}-1H-pyrazol-1-yl)piperidine-1-carboxylate]	74.7%	
CC(C)(C)OC(=O)N1CCC(n2cc(-c3cncc(OCc4ccccc4F)c3)cn2)CC1 [Compound 2, tert-butyl 4-(4-(5-((2-fluorobenzyl)oxy)pyridin-3-yl)-1H-pyrazol-1-yl)piperidine-1-carboxylate]	70.6%	
Cc1ccccc1COc1cncc(-c2cnn(C3CCN(C(=O)OC(C)(C)C)CC3)c2)c1 [Compound 3, tert-butyl 4-(4-(5-((2-methylbenzyl)oxy)pyridin-3-yl)-1H-pyrazol-1-yl)piperidine-1-carboxylate]	60.8%	77 µM
CC(C)(C)OC(=O)N1CCC(n2cc(-c3cncc(OCc4ccccc4)c3)cn2)CC1 [Compound 4, tert-butyl 4-(4-(5-(benzyloxy)pyridin-3-yl)-1H-pyrazol-1-yl)piperidine-1-carboxylate]	69.2%	> 80 µM
CC(C)(C)OC(=O)N1CCC(n2cc(-c3cncc(OCc4ccc(Br)cc4)c3)cn2)CC1 [Compound 7, tert-butyl 4-(4-(5-((4-bromobenzyl)oxy)pyridin-3-yl)-1H-pyrazol-1-yl)piperidine-1-carboxylate]	66.3%	
Cl.Clc1ccccc1COc1cncc(-c2cnn(C3CCNCC3)c2)c1 [Compound 9, 3-((2-chlorobenzyl)oxy)-5-(1-(piperidin-4-yl)-1H-pyrazol-4-yl)pyridine hydrochloride]	16.0%	55 µM
Cl.Clc1ccc(COc2cncc(-c3cnn(C4CCNCC4)c3)c2)c(Cl)c1 [Compound 10, 3-((2,4-dichlorobenzyl)oxy)-5-(1-(piperidin-4-yl)-1H-pyrazol-4-yl)pyridine hydrochloride]	10.2%	53.8 µM
CC(C)(C)CCN1CCC(n2cc(-c3cncc(OCc4ccccc4Cl)c3)cn2)CC1 [Compound 15, 3-((2-chlorobenzyl)oxy)-5-(1-(1-(3,3-dimethylbutyl)piperidin-4-yl)-1H-pyrazol-4-yl)pyridine]	66.7%	
CC(C)(C)CC(=O)N1CCC(n2cc(-c3cncc(OCc4ccccc4Cl)c3)cn2)CC1 [Compound 16, 1-(4-(4-(5-((2-chlorobenzyl)oxy)pyridin-3-yl)-1H-pyrazol-1-yl)piperidin-1-yl)-3,3-dimethylbutan-1-one]	64.5%	79.6 µM
C[C@H](Oc1cncc(-c2cnn(C3CCNCC3)c2)c1)c1ccccc1Cl [Compound 21, (S)-3-(1-(2-chlorophenyl)ethoxy)-5-(1-(piperidin-4-yl)-1H-pyrazol-4-yl)pyridine]	24.9%	54.7 µM
C[C@@H](Oc1cncc(-c2cnn(C3CCNCC3)c2)c1)c1ccccc1Cl [Compound 22, (R)-3-(1-(2-chlorophenyl)ethoxy)-5-(1-(piperidin-4-yl)-1H-pyrazol-4-yl)pyridine]	24.6%	43.4 µM
C[C@@H](Oc1cncc(-c2cnn(C3CCNCC3)c2)c1)c1ccc(Cl)cc1 [Compound 23, (R)-3-(1-(4-chlorophenyl)ethoxy)-5-(1-(piperidin-4-yl)-1H-pyrazol-4-yl)pyridine]	8.15%	50.6 µM
Cc1ccccc1COc1cncc(-c2cnn(C3CCNCC3)c2)c1 [Compound 25, 3-[(2-Methylphenyl)methoxy]-5-[1-(piperidin-4-yl)-1H-pyrazol-4-yl]pyridine]	24.9%	83.6 µM
Clc1ccccc1COc1cncc(-c2ccn(C3CCNCC3)n2)c1 [Compound 26, 3-((2-chlorobenzyl)oxy)-5-(1-(piperidin-4-yl)-1H-pyrazol-3-yl)pyridine]	14.6%	87.4 µM
Clc1ccccc1COc1cncc(-n2ccc(C3CCNCC3)n2)c1 [Compound 27, 3-((2-chlorobenzyl)oxy)-5-(3-(piperidin-4-yl)-1H-pyrazol-1-yl)pyridine]	10.1%	57.1 µM
Clc1ccccc1COc1cncc(-n2cc(C3CCNCC3)cn2)c1 [Compound 28, 3-((2-chlorobenzyl)oxy)-5-(4-(piperidin-4-yl)-1H-pyrazol-1-yl)pyridine]	5.98%	55.5 µM
Clc1ccccc1COc1cccc(-c2cnn(C3CCNCC3)c2)c1 [Compound 29, 4-(4-(3-((2-chlorobenzyl)oxy)phenyl)-1H-pyrazol-1-yl)piperidine]	28.4%	55 µM
